# In PubChem BioAssay (NCI):
#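 Abbreviation: GI50, concentration required for 50% inhibition of growth. At the TGI there is no net growth.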
# Experiments:
# Experiment in all cases: DTP human tumour cell line panel, 384-well format
# A549 NSCLC = test system: A549 NSCLC
# DU-145 prostate = test system: DU-145 prostate
# HCT-15 colon = test system: HCT-15 colon
# HOP-62 NSCLC = test system: HOP-62 NSCLC
# K-562 leukemia = test system: K-562 leukemia
# KM12 colon = test system: KM12 colon
# LOX IMVI melanoma = test system: LOX IMVI melanoma
# MALME-3M melanoma = test system: MALME-3M melanoma
# MDA-MB-435 melanoma = test system: MDA-MB-435 melanoma
# SF-295 CNS = test system: SF-295 CNS
# SK-MEL-5 melanoma = test system: SK-MEL-5 melanoma
# SN12C renal = test system: SN12C renal
# SNB-19 CNS = test system: SNB-19 CNS
smiles,measurement,setting,value
N#Cc1cnc(Nc2cc(NC[C@H]3CNCCO3)c(C(F)(F)F)cn2)cn1,GI50,A549 NSCLC,21.5 µM
same,TGI,A549 NSCLC,> 100 µM
same,GI50,DU-145 prostate,5.48 µM
same,TGI,DU-145 prostate,19.4 µM
same,GI50,HCT-15 colon,5.16 µM
same,TGI,HCT-15 colon,> 65.1 µM
same,GI50,HOP-62 NSCLC,3.75 µM
same,TGI,HOP-62 NSCLC,16.8 µM
same,GI50,K-562 leukemia,0.58 µM
same,TGI,K-562 leukemia,2.23 µM
same,GI50,KM12 colon,1.67 µM
same,TGI,KM12 colon,18 µM
same,GI50,LOX IMVI melanoma,14.9 µM
same,TGI,LOX IMVI melanoma,32.6 µM
same,GI50,MALME-3M melanoma,7.25 µM
same,TGI,MALME-3M melanoma,22.9 µM
same,GI50,MDA-MB-435 melanoma,1.77 µM
same,TGI,MDA-MB-435 melanoma,10.5 µM
same,GI50,SF-295 CNS,0.946 µM
same,TGI,SF-295 CNS,4.12 µM
same,GI50,SK-MEL-5 melanoma,2.97 µM
same,TGI,SK-MEL-5 melanoma,16 µM
same,GI50,SN12C renal,18.3 µM
same,TGI,SN12C renal,38.5 µM
same,GI50,SNB-19 CNS,9.81 µM
same,TGI,SNB-19 CNS,62.7 µM
